Laboratory results as given in patent US20220251504A1, “FUNCTIONAL ASTROCYTES DERIVED FROM PLURIPOTENT STEM CELLS AND METHODS OF MAKING AND USING THE SAME” (New York Stem Cell Foundation, Inc., priority 2019, published 2022).

Legend:
Type in all cases: cell-based, human
CD49f^+ astrocytes = assay: Intracellular Ca2+ imaging of hiPSC-astrocytes after ATP application; details: 100 μM ATP, 60s application
Description: See also FIG. 32. […] Bar graphs show the maximum number of evoked spikes per 1 second stimulus (n=8/18), the maximum firing frequency in hertz (Hz) (n=5/15), the amplitude adaptation ratio between first and last action potential (n=5/15), the maximum action potential height (mV) (n=8/17), and the frequency of spontaneous excitatory post-synaptic currents (Hz) (n=5/9) in hiPSC-neurons at day 50 when cultured alone vs. with astrocytes during days 33-50. Dots correspond to 3 different lines. Each dot represents an independent cell. n=neurons alone/neurons co-cultured with astrocytes. Error bars show mean±standard deviation. p-values were calculated using a two-tailed, unpaired t-test. […] Scale bar, 50 μm. […] Error bars show mean±standard deviation (n=3 technical replicates). p-values were calculated using a two-tailed, unpaired t-test. […] Error bars show mean±standard deviation (n=4 technical replicates). p-values were calculated using a one-way ANOVA with Dunnett's correction for multiple comparisons. […] Error bars show mean±standard deviation. p-values were calculated using a one-way ANOVA with Dunnett's correction for multiple comparisons.
CD49f^+ astrocytes from three iPSC lines were cultured on glass coverslips coated with 0.1 mg/ml poly-L-ornithine followed by 10 μg/ml laminin. […] Fluorescence was recorded at 2 Hz by a cooled CCD camera (Hamamatsu™ Orca R^2). […]

[1] = system: OLIG2-GFP knock-in hESC reporter line; assay: OLIG2-GFP expression by flow cytometry during differentiation of hESC reporter line; details: RA 100 nM from beginning of induction, SHH 100 ng/ml from day 8, or SAG replacing SHH, added to RA
Description: RA at a concentration of 100 nM from day 0 results in the highest yield of GFP^+ cells. […] Negative: human embryonic stem cell (hESC) line RUES1. […] Error bars are SEM (N=3). […] Only GFP^+ cells form spheres, providing enrichment to the GFP^+ population.
An OLIG2-GFP knock-in hESC reporter line was used to track OLIG2^+ progenitors by live fluorescent imaging. First, PAX6^+ cells were induced using dual inhibition of SMAD signaling in adherent cultures. Next, to mimic the embryonic spinal cord environment, different concentrations of RA and/or SHH were applied at various times and quantified OLIG2-GFP expression through flow cytometry (FIG. 2A).
At day 12, cells were detached and placed into low-attachment plates to promote their aggregation into spheres. The minimum number of cells required to form a sphere was at least 100 cells, and we noted that the majority of cells in the spheres were GFP^+. […]
(§1) Cells were enzymatically harvested by Accutase™ treatment for 25 minutes at 37° C. to obtain a single cell suspension. Cells were then re-suspended in 100 μl of their respective medium containing the appropriate amount of either primary antibody or fluorescence-conjugated antibodies and were incubated on ice for 30 minutes shielded from light. […] Flow cytometry data were analyzed using BD FACSDiva™ software.

O4^+ cells = assay: FACS analysis for O4+ cells at day 75 of differentiation; details: RA only vs RA and SAG in the first 12 days of differentiation
Description: Endogenous SHH levels are higher in the samples that were not exposed to SHH/SAG. Error bars are SEM (N=3). […] Negative Control: APC-conjugated secondary antibody only. […] A substantial population of GFP^+ cells is present only under the dual inhibition of SMAD proteins, indicating a synergistic effect between RA and the dual inhibition of SMAD. DSi: Dual SMAD inhibition; SB: SB431542; LDN: […].
Spheres were plated on pO/L plates, as described above, in PDGF Medium at day 30, changing 2/3 of the PDGF Medium every other day until day 75 of differentiation. The appearance of O4^+ cells was assessed by live O4 staining from day 55 onwards (FIG. 6). At day 75, O4+ OPCs could be isolated by FACS (FIG. 7I). Alternatively, for terminal oligodendrocyte differentiation (FIG. 7G, 7H), cells were cultured in Glial Medium from day 75, changing 2/3 of the medium every 3 days for two weeks.
as §1

Compound	[Ca^2+]i response to extracellular ATP (CD49f^+ astrocytes)	OLIG2^+ progenitors [1] [%]	decrease in the O4^+ population in cells not provided with SAG (O4^+ cells) [%]
Nc1ncnc2c1ncn2[C@@H]1O[C@H](COP(=O)(O)OP(=O)(O)OP(=O)(O)O)[C@@H](O)[C@H]1O [ATP]	robustly responded		
CC1=C(/C=C/C(C)=C/C=C/C(C)=C/C(=O)O)C(C)(C)CCC1 [RA, all trans retinoic acid]		40.6	
CNC1CCC(N(Cc2cccc(-c3ccncc3)c2)C(=O)c2sc3ccccc3c2Cl)CC1 (stereo not shown) [SAG]		70.1	56
